Laboratory results as given in paper PMC5077990, “P53 activation inhibits all types of hematopoietic progenitors and all stages of megakaryopoiesis” (Oncotarget, 2016).
Where two headings read alike, the source gives them in different places.

Key:
[1] = tested on: CFU-MK (Colony Forming Unit-Megakaryocyte) progenitors from CD34+ cells; assay: Colony assay in fibrin clot, CFU-MK; type: cell-based, human; conditions: Homo sapiens
Experimental: CD34^+cells were obtained from leukapheresis samples after mobilization of donors after informed consent in agreement with our Institute Ethic Committee (Assistance Publique des Hôpitaux de Paris) and in accordance with the Declaration of Helsinki. CD34^+cells were isolated by a positive selection using an immunomagnetic cell sorting system (AutoMacs; Miltenyi Biotec, Bergisch Gladbach, Germany). 500 to 1000 normal CD34^+cells were plated either in 1% methylcellulose assay (StemCells technologies, Vancouver, Canada) to quantify erythroid (BFU-E) and granulo-monocytic (CFU-GM) progenitors or in serum-free fibrin clot assay for quantification of MK progenitors (CFU-MK) in the absence or presence of various concentration of SAR405838 or MI-219. Cultures in methylcellulose were stimulated by addition of human recombinant growth factors: G-CSF (20 ng/mL), IL-3 (10 ng/mL) SCF (25 ng/mL, Biovitrum AB, Stockholm, Sweden), IL-6 (10 ng/mL), FLT3 (10 ng/mL) and human EPO (1 U/mL). Cultures in fibrin clot were stimulated with 10 ng/mL TPO (Kirin Brewery, Tokyo, Japan) and 25 ng/mL SCF. BFU-E and CFU-GM colonies were enumerated at day 14 of culture. […]

Day 8-erythroblasts = assay: Viable erythroblasts counted by Trypan blue exclusion; type: cell-based; conditions: Homo sapiens, day 8-erythroblasts treated 48 hours, read-out: IC50, decrease in viable cells
Experimental: Day 8-erythroblasts were treated with various doses of SAR405838 or MI-219 for 48 hours. The viable cells were counted by Trypan blue exclusion and the apoptotic cells were quantified by flow cytometry analysis using annexin V/ propidium iodide labeling.
B. Day 8-erythroblasts were treated with various doses of MI-219 or SAR405838 for 48 hours and counted by trypan blue exclusion. C. Day 8-erythroblasts were treated with various doses of MI-219 or SAR405838 for 48 hours and apoptotic cells were analyzed by flow cytometry using Annexin V assay. The results represent the mean of 3 independent experiments. * represents statistical significance (*P<0.05; **P<0.01; ***P<0.001).

## CC(C)(C)C[C@@H]1N[C@@H](C(=O)N[C@H]2CC[C@H](O)CC2)[C@H](c2cccc(Cl)c2F)[C@]12C(=O)Nc1cc(Cl)ccc12 [SAR405838]
[1]; 72 h, CD34+ cells treated 3 days, washed, then plated in colony assay, read-out: IC50, reduction of CFU-MK progenitors
  IC50: ~2 µM
[1]; CD34+ cells seeded in fibrin clot in the presence of compound, compared to untreated control, read-out: dose inducing a 50% reduction of CFU-MK numbers
  IC50: 0.5 to 1 µM
Day 8-erythroblasts
  IC50: 0.5 µM
